In patent publication US6844312B2, “Production of tyrosine hydroxylase positive neurons” (Stem Cell Therapeutics Inc., priority 2001, dated 2005):

System: neural stem cells
Assay: Effect of PACAP in lieu of forskolin in the TH cocktail on neural stem cell culture
Type: cell-based, mice
Details: 2 nM PACAP versus 1 μM forskolin in the TH cocktail
Protocol: A control experiments using 1 μM forskolin and no PACAP was performed in parallel as a comparison.

Substance: pituitary adenylate cyclase activating polypeptide [PACAP]
- effectiveness in the production of TH positive neurons: more effective than forskolin
